Like-named read-outs stand apart in the source and are kept apart here.
How the values were obtained:
[1] = Electrostriction measurement of membrane elasticity; format: physicochemical; details: 1–1,000 µM NFx
Method: Membrane elasticity measurements were performed as described previously ([Vitovic et al., 2013]). Briefly, a 1 kHz sine wave with an amplitude of 100 mV was applied to the membrane using a wave generator (Rigol DG821; Rigol Technologies). Due to the nonlinear dependence of membrane capacitance on the voltage V [C = C0 (1 + αV^2)], where C0 is the capacitance at V = 0 and α is the electrostriction coefficient, a third current harmonic with frequency 3 kHz and amplitude A3 is generated in addition to the basic first current harmonic, A1 (frequency 1 kHz).

human TREK-2 = target: T1, human TREK-2 (Homo sapiens, UniProt P57789); experiment: Macroscopic TREK-2 currents in giant excised patches from Xenopus oocytes; format: cell-based
T1 construct: expressed in transfected cells; host or cells: Xenopus laevis oocytes injected with in vitro transcribed mRNA (pFAW vector)
T1 sequence (P57789 1-543 isoform P57789-4): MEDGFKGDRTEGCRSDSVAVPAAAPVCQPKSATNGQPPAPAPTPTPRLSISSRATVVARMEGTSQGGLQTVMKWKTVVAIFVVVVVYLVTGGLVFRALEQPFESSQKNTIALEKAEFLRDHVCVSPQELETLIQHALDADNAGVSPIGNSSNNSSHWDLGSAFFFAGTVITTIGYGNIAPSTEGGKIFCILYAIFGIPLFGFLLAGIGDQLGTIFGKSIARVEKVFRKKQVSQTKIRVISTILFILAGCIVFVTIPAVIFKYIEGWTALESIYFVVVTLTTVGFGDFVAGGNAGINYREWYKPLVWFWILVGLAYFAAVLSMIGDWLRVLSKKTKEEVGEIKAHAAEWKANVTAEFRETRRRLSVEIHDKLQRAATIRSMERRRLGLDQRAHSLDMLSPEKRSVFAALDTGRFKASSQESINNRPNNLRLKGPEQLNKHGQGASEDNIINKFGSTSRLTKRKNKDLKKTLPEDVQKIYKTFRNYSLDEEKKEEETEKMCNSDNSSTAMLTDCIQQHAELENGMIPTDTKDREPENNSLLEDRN
Method: Full-length human TREK-2 isoform 3 (NCBI accession no. NP_612191) was used throughout this study and was subcloned into the pFAW vector for expression in oocytes. The truncated construct used to generate protein (TREK-2ΔN/ΔC) is identical to that used previously to obtain crystal structures ([Dong et al., 2015]); it contains a deletion of 71 residues at the N terminus and 213 residues at the C terminus. […] Desamino chloro-fluoxetine (Toronto Research Chemicals) was dissolved in chloroform and diluted to working concentrations on the day of experimenting (maximum final concentration was 0.01%).
Oocytes were prepared for injection of mRNA by collagenase digestion followed by manual defolliculation and stored in ND96 solution that contained (in mM) 96 NaCl, 2 KCl, 1.8 CaCl2, 1 MgCl2, and 10 HEPES (pH 7.4) and was supplemented with 2.5 mM sodium pyruvate 50 µg/ml gentamycin, 50 µg/ml tetracycline, 50 µg/ml ciprofloxacin, and 100 µg/ml amikacin. Cells were injected with 1–4 ng mRNA up to 4 d after isolation. In vitro transcription of mRNA was done using the Amplicap SP6 Kit (Cambio). Experiments were performed 12–24 h after injection at room temperature (22°C unless otherwise indicated). For measurement and comparison of basal whole-cell currents, oocytes were injected with 4 ng RNA and recorded exactly 24 h after injection.
For currents recorded in Xenopus laevis oocytes, giant-patch electrodes were pulled from thick-walled borosilicate glass and polished to give pipette resistances of ∼0.3–0.5 MΩ when filled with patch solution. Pipette solution contained (in mM) 116 NMDG, 4 KCl, 1 MgCl2, 3.6 CaCl2, and 10 HEPES (pH 7.4), while the bath solution contained (in mM) 120 KCl, 1 NaCl, 2 EGTA, and 10 HEPES (pH 7.3). Patches were perfused via a gravity-flow perfusion system and a HEKA EPC 10 USB single computer–controlled amplifier was used and currents recorded using a Patchmaster v2 × 90.5 (HEKA Electronics), filtered at 1 kHz, and sampled at 10 kHz. For currents recorded in HEK293 cells, patch electrodes were pulled from thick-walled borosilicate glass and polished to give pipette resistances of ∼3–5 MΩ when filled with patch solution. The currents were recorded from excised patches with both intracellular and extracellular solution containing 200 mM KCl and 10 mM HEPES (pH 6.0 with KOH). Patches were perfused via a gravity-flow perfusion system. Data were acquired with pClamp and recorded using an Axopatch 200B (Molecular Devices), filtered at 5 kHz, and sampled at 200 kHz. Single-channel currents were analyzed in an identical manner to those obtained from bilayers (see above).
The macroscopic concentration–inhibition relationships in Figs. 1 and 2 were fitted with a modified Hill equation:
I/I0=a+1−a/1+([X]/IC50)^h, (1) where I and IO are the currents in the presence and absence of inhibitor, respectively, [X] is the concentration of inhibitor, IC50 is the inhibitor concentration at which the inhibition is half maximal, h is the Hill coefficient, and a is the fraction of unblockable current; a = 0, except where indicated in the legend to Fig. 1.
The macroscopic concentration–activation relationships in Fig. 1 E were fitted with a modified Hill equation: I/I0=a+(1−a)([X]/IC50)^h/1+([X]/IC50)^h, (2) where I and IO are the currents in the presence and absence of agonist, respectively, [X] is the concentration of agonist, IC50 is the agonist concentration at which the activation is half maximal, h is the Hill coefficient, and a is the fraction of initial current.

[2] = +40 mV, in the presence of 80 µM TPA

## NCCC(Oc1ccc(C(F)(F)F)cc1)c1ccccc1 (stereo not shown) [NFx, norfluoxetine]
[1]
  effect on the modulus of elasticity (E⊥): no obvious effect
Human TREK-2; 0 mV, Fig. S4
  h (Hill coefficient), NFx inhibition: 0.72
Human TREK-2; +40 mV, Fig. S4
  h (Hill coefficient), NFx inhibition: 0.74
Human TREK-2; +40 mV, NFx on its own, Fig. 1E
  h (Hill coefficient), NFx inhibition: 1.0
Human TREK-2; [2]
  a (fraction of unblockable current): 0.05
  h (Hill coefficient), NFx inhibition: 1.2
Human TREK-2; +40 mV, in the presence of 100 mM TEA
  h (Hill coefficient), NFx inhibition: 0.8
Human TREK-2; +80 mV, Fig. S4
  h (Hill coefficient), NFx inhibition: 0.79
Human TREK-2; IC50, NFx inhibition of TREK-2 currents, +40 mV, NFx on its own, Fig. 1E
  IC50: 2700 nM
Human TREK-2; IC50, NFx inhibition of macroscopic WT TREK-2 currents, 0 mV, Fig. S4
  IC50: 4200 nM
Human TREK-2; IC50, NFx inhibition of macroscopic WT TREK-2 currents, +40 mV, Fig. S4
  IC50: 2000 nM
Human TREK-2; IC50, NFx inhibition of macroscopic WT TREK-2 currents, +80 mV, Fig. S4
  IC50: 1400 nM
Human TREK-2; NFx on its own, Fig. 2C
  h (Hill coefficient), NFx inhibition: 1.7
Human TREK-2; giant inside-out patches, physiological pH 7.4, NFx alone, read-out: IC50 for channel inhibition
  IC50: ~3000 nM
Human TREK-2; in the presence of 50 µM ML335
  h (Hill coefficient), NFx inhibition: 0.8
Human TREK-2; in the presence of 1 mM 2-APB
  h (Hill coefficient), NFx inhibition: 0.6

Source: publication PMC8155809 (The Journal of General Physiology, 2021)
